Data reported in patent publication US12509446B2, “FYN and VEGFR2 kinase inhibitors” (ROTTAPHARM BIOTECH S.R.L., priority 2019, dated 2025).
Read-outs that look alike come from different tables or passages of the source.

How the values were obtained:
Fyn = Fyn (Homo sapiens (Human), UniProt P06241); experiment: Z′-LYTE in vitro Fyn kinase activity assay; assay type: biochemical; conditions: ATP 50 μM; read-out: FYN KINASE INHIBITION IC50
Description: The Fyn kinase inhibitory activity of representative examples of compounds of Formula (1) was evaluated by Z′-LYTE™ Kinase Assay Platform (Invitrogen). Compounds were evaluated towards active Fyn (full length active, molecular weight 87.1 kDa; Invitrogen). […] Samples representing the 0% inhibition (or total enzymatic activity) were in the presence of compound diluent (1% DMSO final in Reaction Buffer 50 mMHepes, 10 mM MgCl2, 1 mM EGTA, 0.01% Brij-35, pH 7.5). The kinase reaction was carried out in a total volume of 10 μl, for 60 minutes at 25° C. The 0% Phosphorylation (i.e. no ATP) and 100% Phosphorylation Assay Controls, included in each plate, allowed to calculate the percent phosphorylation achieved in the specific reaction well. Results are expressed as percentage of inhibition and the IC50 values were calculated by non-linear curve fitting using GraphPad™ Prism software (version 6 for Windows).

NF-kB = experiment: Gene reporter (GR) assay, NF-kB activation after TNFα in JB6 Cl 41-5a (P+) cells; assay type: cell-based, murine; set-up: key to Gene reporter (GR) inhibition, no effect: ne: no effect; conditions: for inhibition at 10 µM / inhibition at 3 µM: read-out: Gene reporter (GR) inhibition % effect at max concentration; for IC50: TNFα 2 ng/ml, non toxic concentrations, read-out: Gene reporter (GR) inhibition IC50
Description: To determine if the compounds of the invention were active also in a cellular model, a gene reporter assay was established in a cell line (JB6 Cl 41-5a (P+)) know to activate Fyn kinase via an inflammatory stimuli (TNFα). GR assay measures the activation of the nuclear transcription factor NF-kB, situated down-stream the Fyn activation pathway. Products active in this analysis has to penetrate in the cell and inhibit the activation pathway of NF-kB.
The murine epithelial cell line JB6 Cl 41-5a (P+) (ATCC® Cat. #CRL-2010) was stably transfected with the pGL4.32[luc2P/NFkB-RE/Hygro] vector (Promega). Clonal selection was achieved by limiting with 80 μg/ml Hygromycin B. The clones were tested for their response to TNFα stimulus.
JB6(P+) NFkB-RE-luc2P transfected cells were used for the analysis of NF-kB activity modulation, after TNFα stimulation, by Fyn-inhibitors.
Cells were pre-treated with the different compounds for 1 h and then stimulated with 2 ng/ml TNFα for 4 h. Each tested condition was analyzed in quadruplicate.
The luciferase analysis was performed with ONE-Glo™+ToxLuciferase Reporter and Cell Viability Assay kit (Promega).

VEGFR2 = VEGFR2 (Homo sapiens (Human), UniProt P35968); experiment: In vitro VEGFR2 kinase activity assay (Eurofins Cerep); assay type: biochemical; conditions: read-out: VEGFR2 KINASE INHIBITION IC50
Description: The VEGFR2 kinase inhibitory activity of representative examples of compounds of Formula (I) assays was evaluated in Eurofins Cerep (France). The concentration range of the inhibitors under investigation was from 10^−8 M up to 10^−5 M final concentration. Some compounds were re-tested in a concentration-range starting from 10^−9 M. The results are expressed as a percent of control activity (in the absence of test compound) and the IC50 values were determined by non-linear regression analysis of the inhibition/concentration curves generated with mean replicate values.

Fyn, sequence (P06241 whole entry): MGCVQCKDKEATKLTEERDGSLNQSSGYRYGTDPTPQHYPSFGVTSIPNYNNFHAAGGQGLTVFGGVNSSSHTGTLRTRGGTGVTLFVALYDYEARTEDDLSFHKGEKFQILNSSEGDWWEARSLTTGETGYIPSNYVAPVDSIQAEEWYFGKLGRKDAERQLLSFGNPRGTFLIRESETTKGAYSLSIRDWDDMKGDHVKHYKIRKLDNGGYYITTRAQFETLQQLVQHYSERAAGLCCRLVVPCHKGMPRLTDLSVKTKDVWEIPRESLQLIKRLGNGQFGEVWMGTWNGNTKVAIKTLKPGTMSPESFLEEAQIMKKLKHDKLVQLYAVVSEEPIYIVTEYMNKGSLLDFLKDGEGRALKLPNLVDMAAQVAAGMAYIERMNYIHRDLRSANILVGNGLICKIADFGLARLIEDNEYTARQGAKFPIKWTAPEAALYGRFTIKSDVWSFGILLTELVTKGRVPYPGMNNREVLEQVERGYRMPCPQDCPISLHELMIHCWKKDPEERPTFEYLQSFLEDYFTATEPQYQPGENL
VEGFR2, sequence (P35968 20-1356): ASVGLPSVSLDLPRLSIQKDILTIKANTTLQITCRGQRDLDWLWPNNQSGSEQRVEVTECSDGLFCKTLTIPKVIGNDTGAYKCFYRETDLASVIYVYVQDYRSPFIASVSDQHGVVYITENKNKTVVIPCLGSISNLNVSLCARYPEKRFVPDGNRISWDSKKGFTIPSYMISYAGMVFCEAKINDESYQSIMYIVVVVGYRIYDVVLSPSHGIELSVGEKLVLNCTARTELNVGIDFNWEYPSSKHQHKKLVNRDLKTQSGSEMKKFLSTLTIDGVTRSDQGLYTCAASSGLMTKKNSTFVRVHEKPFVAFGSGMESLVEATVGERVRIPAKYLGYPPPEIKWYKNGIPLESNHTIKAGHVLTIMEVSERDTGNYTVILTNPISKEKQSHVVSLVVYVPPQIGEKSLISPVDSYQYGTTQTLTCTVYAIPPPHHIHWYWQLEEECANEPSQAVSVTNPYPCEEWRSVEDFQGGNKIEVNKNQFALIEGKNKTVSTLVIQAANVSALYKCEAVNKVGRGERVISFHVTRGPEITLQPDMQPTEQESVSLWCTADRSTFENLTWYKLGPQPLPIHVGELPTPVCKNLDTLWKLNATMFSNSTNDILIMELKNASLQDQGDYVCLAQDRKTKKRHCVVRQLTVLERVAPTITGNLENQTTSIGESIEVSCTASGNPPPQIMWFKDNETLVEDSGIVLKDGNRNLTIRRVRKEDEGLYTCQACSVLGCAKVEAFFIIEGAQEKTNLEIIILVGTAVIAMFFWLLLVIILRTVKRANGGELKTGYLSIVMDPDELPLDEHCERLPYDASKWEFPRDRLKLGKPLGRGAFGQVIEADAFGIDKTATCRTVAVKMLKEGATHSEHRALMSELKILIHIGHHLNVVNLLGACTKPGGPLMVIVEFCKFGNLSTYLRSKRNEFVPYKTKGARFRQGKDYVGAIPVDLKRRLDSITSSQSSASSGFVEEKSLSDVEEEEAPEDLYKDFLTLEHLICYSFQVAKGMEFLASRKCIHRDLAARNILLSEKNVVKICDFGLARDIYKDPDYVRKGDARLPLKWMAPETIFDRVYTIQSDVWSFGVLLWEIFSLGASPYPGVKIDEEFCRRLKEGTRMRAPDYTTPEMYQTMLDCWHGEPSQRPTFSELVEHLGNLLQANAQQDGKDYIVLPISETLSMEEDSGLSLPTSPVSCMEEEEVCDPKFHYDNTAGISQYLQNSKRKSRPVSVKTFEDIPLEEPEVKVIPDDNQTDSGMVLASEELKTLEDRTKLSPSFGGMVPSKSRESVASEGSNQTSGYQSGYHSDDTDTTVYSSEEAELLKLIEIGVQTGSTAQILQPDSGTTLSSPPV

Compound	IC50 (Fyn) [nM]	IC50 (VEGFR2) [nM]	IC50 (NF-kB; Mus musculus, JB6 Cl 41-5a) [nM]	also measured
CC(C)Cc1ccc(C(=O)Nc2ccc(F)c(CCc3cc(NC(=O)c4ncccn4)[nH]n3)c2)cn1 [Compound 9, N-(3-(2-fluoro-5-(6-isobutylnicotinamido)phenethyl)-1H-pyrazol-5-yl)pyrimidine-2-carboxamide]	16	< 10	–	inhibition at 10 µM (NF-kB; Mus musculus, JB6 Cl 41-5a): 47%
O=C(Nc1ccc(F)c(CCc2cc(Nc3cc4c(cn3)CN(CCO)C4)[nH]n2)c1)c1cccc(C(F)(F)F)c1 [Compound 10, N-(4-fluoro-3-(2-(5-((2-(2-hydroxyethyl)-2,3-dihydro-1H-pyrrolo[3,4-c]pyridin-6-yl)amino)-1H-pyrazol-3-yl)ethyl)phenyl)-3-(trifluoromethyl) benzamide]	4	< 10	2000	–
O=C(Nc1ccc(Cl)c(CCc2cc(Nc3cnccn3)[nH]n2)c1)c1cccc(C(F)(F)F)c1 [Compound 16, N-(4-chloro-3-(2-(5-(pyrazin-2-ylamino)-1H-pyrazol-3-yl)ethyl)phenyl)-3-(trifluoromethyl)benzamide]	24	< 10	321	–
Cc1ccc(NC(=O)c2cccc(C(F)(F)F)c2)cc1CCc1cc(NC(=O)c2ccccn2)[nH]n1 [Compound 18, N-(5-(2-methyl-5-(3-(trifluoromethyl)benzamido)phenethyl)-1H-pyrazol-3-yl)picolinamide]	15	16	974	–
Cc1ccc(NC(=O)N2CCC3(CCC3)C2)cc1CCc1cc(Nc2nccnc2C)[nH]n1 [Compound 20, N-(4-methyl-3-(2-(5-((3-methylpyrazin-2-yl)amino)-1H-pyrazol-3-yl)ethyl)phenyl)-6-azaspiro[3.4]octane-6-carboxamide]	18	–	–	inhibition at 3 µM (NF-kB; Mus musculus, JB6 Cl 41-5a): 45%
CCC1(CC)CCN(C(=O)Nc2ccc(C)c(CCc3cc(Nc4nccnc4C)[nH]n3)c2)C1 [Compound 21, 3,3-diethyl-N-(4-methyl-3-(2-(5-((3-methylpyrazin-2-yl)amino)-1H-pyrazol-3-yl)ethyl)phenyl)pyrrolidine-1-carboxamide]	5	–	–	inhibition at 3 µM (NF-kB; Mus musculus, JB6 Cl 41-5a): 37%
CCC1(CC)CCN(C(=O)Nc2ccc(C)c(CCc3cc(Nc4cnccn4)[nH]n3)c2)C1 [Compound 22, 3,3-diethyl-N-(4-methyl-3-(2-(5-(pyrazin-2-ylamino)-1H-pyrazol-3-yl)ethyl)phenyl)pyrrolidine-1-carboxamide]	7	–	1140	–
Cc1ccc(NC(=O)NC2CCC(C)(C)CC2)cc1CCc1cc(NC(=O)c2ccc(OC3CN(C(C)C)C3)cc2)[nH]n1 [Compound 23, N-(3-(5-(3-(4,4-dimethylcyclohexyl)ureido)-2-methylphenethyl)-1H-pyrazol-5-yl)-4-((1-isopropylazetidin-3-yl)oxy)benzamide]	5	–	1440	–
Cc1ccc(NC(=O)NC2CCCC2)cc1CCc1cc(NC(=O)c2ccc(N3CCN(C)CC3)cc2)[nH]n1 [Compound 24, N-(3-(5-(3-cyclopentylureido)-2-methylphenethyl)-1H-pyrazol-5-yl)-4-(4-methylpiperazin-1-yl)benzamide]	2	–	2330	–
Cc1ccc(NC(=O)NC2CCC(C)(C)CC2)cc1CCc1cc(NC(=O)c2ccc(C3CCN(C)CC3)cc2)[nH]n1 [Compound 25, N-(3-(5-(3-(4,4-dimethylcyclohexyl)ureido)-2-methylphenethyl)-1H-pyrazol-5-yl)-4-(1-methylpiperidin-4-yl)benzamide]	3	–	–	IC50 (NF-kB): 1420 nM
Cc1nc(CN2CCOCC2)cc(Nc2cc(CCc3cc(NC(=O)c4cccc(C(F)(F)F)c4)ccc3F)[nH]n2)n1 [Compound 26, N-(4-fluoro-3-(2-(3-((2-methyl-6-(morpholinomethyl)pyrimidin-4-yl)amino)-1H-pyrazol-5-yl)ethyl)phenyl)-3-(trifluoromethyl)benzamide]	12	< 10	–	inhibition at 3 µM (NF-kB; Mus musculus, JB6 Cl 41-5a): 50%
Cc1nc(CN2C[C@@H](C)O[C@@H](C)C2)cc(Nc2cc(CCc3cc(NC(=O)c4cccc(C(F)(F)F)c4)ccc3F)[nH]n2)n1 [Compound 27, N-(3-(2-(3-((6-(((2S,6R)-2,6-dimethylmorpholino)methyl)-2-methylpyrimidin-4-yl)amino)-1H-pyrazol-5-yl)ethyl)-4-fluorophenyl)-3-(trifluoromethyl)benzamide]	10	12	–	–
Cc1nc(CN2CCCC2)cc(Nc2cc(CCc3cc(NC(=O)c4cccc(C(F)(F)F)c4)ccc3F)[nH]n2)n1 [Compound 28, N-(4-fluoro-3-(2-(3-((2-methyl-6-(pyrrolidin-1-ylmethyl)pyrimidin-4-yl)amino)-1H-pyrazol-5-yl)ethyl)phenyl)-3-(trifluoromethyl)benzamide]	17	< 10	–	–
Cc1nc(Nc2cc(CCc3cc(NC(=O)c4cccc(C(F)(F)F)c4)ccc3F)n[nH]2)cc(N2CCN(CCO)CC2)n1 [Compound 30, N-(4-fluoro-3-(2-(3-((6-(4-(2-hydroxyethyl)piperazin-1-yl)-2-methylpyrimidin-4-yl)amino)-1H-pyrazol-5-yl)ethyl)phenyl)-3-(trifluoromethyl) benzamide]	–	–	–	Gene reporter (GR) inhibition, no effect (NF-kB): ne
Cc1nc(Nc2cc(CCc3cc(NC(=O)c4cccc(C(F)(F)F)c4)ccc3F)n[nH]2)cc(N2CC(O)C2)n1 [Compound 31, N-(4-fluoro-3-(2-(3-((6-(3-hydroxyazetidin-1-yl)-2-methylpyrimidin-4-yl)amino)-1H-pyrazol-5-yl)ethyl)phenyl)-3-(trifluoromethyl)benzamide]	–	–	–	inhibition at 10 µM (NF-kB; Mus musculus, JB6 Cl 41-5a): 47%
Cc1nc(Nc2cc(CCc3cc(NC(=O)c4cccc(C(F)(F)F)c4)ccc3F)n[nH]2)cc(N2CC[C@H](N(C)C)C2)n1 [Compound 32, (S)-N-(3-(2-(3-((6-(3-(dimethylamino)pyrrolidin-1-yl)-2-methylpyrimidin-4-yl)amino)-1H-pyrazol-5-yl)ethyl)-4-fluorophenyl)-3-(trifluoromethyl)benzamide]	9	< 10	–	inhibition at 3 µM (NF-kB; Mus musculus, JB6 Cl 41-5a): 29%
Cc1ccc(NC(=O)c2ccnc(C(C)(C)C#N)c2)cc1CCc1cc(Nc2ncccc2C)[nH]n1 [Compound 36, 2-(2-cyanopropan-2-yl)-N-(4-methyl-3-(2-(5-((3-methylpyridin-2-yl)amino)-1H-pyrazol-3-yl)ethyl)phenyl)isonicotinamide]	32	< 10	494	–
Cc1nc(C#N)cc(Nc2cc(CCc3cc(NC(=O)N4CCC5(CCCC5)CC4)ccc3C)n[nH]2)n1 [Compound 38, N-(3-(2-(5-((6-cyano-2-methylpyrimidin-4-yl)amino)-1H-pyrazol-3-yl)ethyl)-4-methylphenyl)-8-azaspiro [4.5] decane-8-carboxamide]	2	–	–	inhibition at 10 µM (NF-kB; Mus musculus, JB6 Cl 41-5a): 25%
Cc1ccc(NC(=O)c2cc(C(C)(C)C#N)ccn2)cc1CCc1cc(Nc2cnccn2)[nH]n1 [Compound 41, 4-(2-cyanopropan-2-yl)-N-(4-methyl-3-(2-(5-(pyrazin-2-ylamino)-1H-pyrazol-3-yl)ethyl)phenyl)picolinamide]	8	< 10	327	–
Cc1nc(Nc2cc(CCc3cc(NC(=O)c4cccc(C(F)(F)F)c4)ccc3F)[nH]n2)cc(-c2cnn(CCO)c2)n1 [Compound 42, N-(4-fluoro-3-(2-(3-((6-(1-(2-hydroxyethyl)-1H-pyrazol-4-yl)-2-methylpyrimidin-4-yl)amino)-1H-pyrazol-5-yl)ethyl)phenyl)-3-(trifluoromethyl)benzamide]	13	20	–	inhibition at 10 µM (NF-kB; Mus musculus, JB6 Cl 41-5a): 56%
Cc1ccc(NC(=O)c2ccnc(C(C)(C)C#N)c2)cc1CCc1cnc(Nc2cnccn2)s1 [Compound 50, 2-(2-cyanopropan-2-yl)-N-(4-methyl-3-(2-(2-(pyrazin-2-ylamino)thiazol-5-yl)ethyl)phenyl)isonicotinamide]	8	–	–	inhibition at 3 µM (NF-kB; Mus musculus, JB6 Cl 41-5a): 86%
